# Experimental data from patent publication US5434138A, “Gonadoliberin antagonists” (Hoechst Aktiengesellschaft, priority 1990, dated 1995).
# Assays:
# serum testosterone = experiment: Testosterone-lowering effect on infusion by minipumps; assay type: in vivo, rat; conditions: male rats, subcutaneous infusion by minipumps for 7 days
# Method: (§1) The peptides according to the invention have been tested for an atrophic effect on androgen-dependent organs and for an LH- and testosterone-lowering effect in serum and blood of male rats by continuous infusion (MINIPUMPS). The ovulation-inhibiting effect has been tested on female rats. The histamine release was checked using rat peritoneal mast cells.
# The testosterone-lowering effect was tested on male rats during subcutaneous infusion for 7 days. The biological effect on androgen-dependent organs and serum testosterone was recorded. The test compounds were administered by subcutaneous infusion using minipumps at a rate of […] for 7 days. The test compounds were dissolved in sterile 5 % strength mannitol solution. The minipumps were implanted subcutaneously in the region of the back under anesthesia and aseptic conditions.
# Serum testosterone was extracted with diethyl ether and determined by a specific RIA.
# Testosterone-lowering effect on infusion by minipumps
# [1] = test system: rat peritoneal mast cells; experiment: Histamine release from peritoneal mast cells; assay type: cell-based, Wistar rats; conditions: 37° C., 30 minutes
# Method: as §1
# Wistar rats were sacrificed by decapitation. 50 ml of a 0.9% strength NaCl solution were injected into the abdominal cavity and, after gentle massage, the abdominal wall was opened. The fluid, which contains the peritoneal cells, was aspirated using a Pasteur pipette and then centrifuged. The pelleted cells were resuspended and, after testing viability, diluted to 10^6 mast cells/ml.
# 150 μl of the dissolved gonadoliberin antagonist were added to a suspension of 10^5 mast cells in 150 μl of 0.9 % strength NaCl solution. After incubation at 37° C. for 30 minutes, the test tubes were centrifuged and the supernatant was removed. The LHRH antagonist Ac-D-Nal-D-p-Cl-D-Phe-D-Trp-Ser-Tyr-D-Ser(Rha)-Leu-Arg-Pro-Azagly-NH2, known to be a compound which induces histamine release by mast cells, was used as comparison substance. To determine the total histamine release (100%), the mast cell suspensions were rapidly boiled over a Bunsen burner.
# A modified form of the methods described by Skofitsch et al. (J. Chromatography, 226, 53-59, 1981) and Siraganian and Hook (in Manual of Clinical Laboratory Immunology; eds: Rose et al. American Society of Microbiology, Washington D.C., pages 675, 1986) was used. Briefly summarized, 100 μl of a 1N NaOH and 100 μl of phthalaldehyde were added to 250 μl of supernatant and shaken vigorously. After a reaction time of 2 minutes, the fluorophore was converted into a more strongly fluorescent and stable product by acidification with 50 μl of 3N HCl. 10 μl of the supernatant were injected into the Chromspher C8 column (Chrompak FRW) of the HPLC system. This system comprises an SP 8100 chromatograph (Spectra Physics) and an SP 4270 integrator (Spectra Physics) and an LS-1 fluorescence detector (Perkin Elmer). The fluorescence was recorded at the wavelengths of 360 nm excitation and 450 nm emission.
# Histamine release from peritoneal mast cells (μl/ml)
# [2] = test system: immature female rats (LHRH-induced ovulation); experiment: Rat antiovulation assay; assay type: in vivo; conditions: PMSG-pretreated immature female rats, phenobarbital; 800 ng LHRH s.c. 2 hours after antagonist
# Method: as §1
# The ovulation-inhibiting effect was tested in immature female rats which had been pretreated with PMSG (pregnant mare serum gonadotropin) in order to induce follicle maturation, Spontaneous ovulation was prevented by barbiturate (phenobarbital). A test dose of 800 ng of LHRH was injected subcutaneously 2 hours after the antagonists. The test substances were injected subcutaneously dissolved in 5% strength mannitol solution. The next day the Fallopian tubes were dissected out and stained with Patent Blue, and the tubular oocytes were counted under a microscope. The dose for an ovulation-inhibiting effect (ED 100) was determined for all the antagonists.
# histamine secretion = conditions: A. Phillips et al., Life Sci. 41 (1987); cited from earlier work
Substance,Testosterone-lowering effect on infusion by minipumps: Dose per day (serum testosterone) [μg/24 h/rat],"Histamine release, percentage relative to total histamine release on boiling ([1]; 0.01 (μl/ml) antagonist) [%]","Histamine release, percentage relative to total histamine release on boiling ([1]; 0.1 (μl/ml) antagonist) [%]","Histamine release, percentage relative to total histamine release on boiling ([1]; 1 (μl/ml) antagonist) [%]","Histamine release, percentage relative to total histamine release on boiling ([1]; 10 (μl/ml) antagonist) [%]","Histamine release, percentage relative to total histamine release on boiling ([1]; 100 (μl/ml) antagonist) [%]",Ovulation-inhibiting dose (ED 100) [2] [ng per rat s.c.],histamine secretion (histamine secretion)
Ac-D-NaI-D-p-Cl-Phe-D-Trp-Ser-Tyr-D-Ser(Rha)-Leu-Ser(Rha)-pro-Azagly-NH2 [Example 1],120,0.33,2.82,-2.16,-5.37,-8.61,120,
"Ac-D-Nal-D-p-Cl-D-Phe-D-Trp-Ser-Tyr-D-Ser(Rha)-Leu-Arg-Pro-Azagly-NH2 [Comparison substance, reference compound]",,2.6,2.1,15.3,92.4,107.6,,
Ac-D-Nal-D-p-Cl-Phe-D-Pal-Ser-Tyr-D-Ser(Rha)-Leu-Ser (Rha)-Pro-Azagly-NH2 [Example 2],120,2.5,4.6,3.7,0.9,0.0,256,
Ac-D-Nal-D-p-Cl-Phe-D-Pal-Ser-Tyr-D-Ser(Rha)-Leu-Ser(Fuc)-Pro-Azagly-NH2 [Example 4],60,,,,,,64,
Ac-D-Nal-D-p-Cl-Phe-D-Pal-Ser-Tyr-D-Ser(Rha)-Leu-Ser(Rha)-Pro-D-Ala-NH2 [Example 5],60,1.9,2.4,0.9,0.3,3.8,64,
Ac-D-Nal-D-p-Cl-Phe-D-Trp-Ser-Tyr-D-Ser(Rha)-Leu-Ser(Xyl)-Pro-Azagly-NH2 [Example 3],120,,,,,,512,
Nal-Glu,,,,,,,,greatly reduced
